Patent publication US20040063580A1, “Bicyclic triazolone derivatives and a herbicides containing the same” (priority 2000, published 2004)
Several values for one entry are separate records, joined by “and”; a condition that tells them apart may be missing. Identical values can stand only once.

How the values were obtained:
velvetleaf = experiment: Herbicidal effects against weeds (post emergence), velvetleaf; format: in vivo; details: post emergence spray, evaluated two weeks after treatment
Experimental: (§1) Herbicidal Effects Against Weeds (Post Emergence)
(§2) After filling 300 g field soil in jiffypot™ having diameter of 10 cm, the soil was steam sterilized. Seeds of velvetleaf, redroot pigweed, tall morningglory and corn onto the surface of the soil were scattered, and then covered with the soil to a thickness of 0.5 cm for the weed, 1 cm for the crop. When the weed and the crop reached the designated growth stage, they were treated with the compound to be tested.
(§3) Preparation of the Test Solution and the Method of Treatment
(§4) The compound to be tested was dissolved in acetone which contain Tween 20™ and diluted with deionized water to prepare the test solution for 10 g/a and 1 g/a use. The test solution was sprayed on the pots in a device for spraying using spraygun.
(§5) Method of Indicating the Effect and Phytotoxicity
(§6) The effect of the compound tested on the weeds and phytotoxicity on the crops were evaluated two weeks after treatment with the compound as 6 grades from 0 to 5 shown in the Table 9 and 10.
(§7) In the Table 11 and 12, the herbicidal effects were indicated by the following evaluation index.

tall morningglory = experiment: Herbicidal effects against weeds (post emergence), tall morningglory; format: in vivo; details: post emergence spray, evaluated two weeks after treatment
Experimental: as §1, §2, §3, §4, §5, §6, §7

corn = experiment: Post emergence test, phytotoxicity on the crop corn; format: in vivo; details: post emergence spray, evaluated two weeks after treatment
Experimental: as §1, §2, §3, §4, §5, §6
The phytotoxicity was indicated by the following evaluation index.

redroot pigweed = experiment: Herbicidal effects against weeds (post emergence), redroot pigweed; format: in vivo; details: post emergence spray, evaluated two weeks after treatment
Experimental: as §1, §2, §3, §4, §5, §6, §7

In the case of CCS(=O)(=O)Nc1cc(-n2nc3ccc(C)cn3c2=O)c(F)cc1C#N [A-50], the “Evaluation index Velvet leaf” value (velvetleaf; 10 g/a) is reported as 5 (maximum *all dead) 100) and the “Evaluation index Tall morning glory” value (tall morningglory; 10 g/a) is reported as 5 (maximum *all dead) 100).
In the case of CCOC(=O)COc1cc(-n2nc3ccc(Cl)cn3c2=O)c(F)cc1Cl [A-27], the “Evaluation index Velvet leaf” value (velvetleaf; 10 g/a) is reported as 5 (maximum *all dead) 100) and the “Evaluation index Tall morning glory” value (tall morningglory; 10 g/a) is reported as 5 (maximum *all dead) 100).
For C#CCOc1cc(-n2nc3ccc(Cl)cn3c2=O)c(F)cc1Cl [Compound No. A-25, 6-Chloro-2-(4-chloro-2-fluoro-5-propargyloxyphenyl)-1,2,4-triazolo[4,3-a]pyridin-3(2H)-one], the “Evaluation index Velvet leaf” value (velvetleaf; 1 g/a) was 5 (maximum *all dead) 100), the “Evaluation index Velvet leaf” value (velvetleaf; 10 g/a) was 5 (maximum *all dead) 100) and the “Evaluation index Corn (phytotoxicity)” value (corn; 1 g/a) was 0 (no effect 0). For the same compound, the “Evaluation index Corn (phytotoxicity)” value (corn; 10 g/a) was 1 (small 0.1 to 12.5), the “Evaluation index Tall morning glory” value (tall morningglory; 1 g/a) was 5 (maximum *all dead) 100) and the “Evaluation index Tall morning glory” value (tall morningglory; 10 g/a) was 5 (maximum *all dead) 100). The melting point was 145 to 148 °C.
In the case of C#CCOc1cc(-n2nc3n(c2=O)CCCN3)c(F)cc1Cl [Compound No. F-1, 5,6,7,8-Tetrahydro-2-(4-chloro-2-fluoro-5-propargyloxyphenyl)-[1,2,4]triazolo[4,3-a]pyrimidin-3(2H)-one], the “Evaluation index Velvet leaf” value (velvetleaf; 1 g/a) is reported as 4 (maximum 87.6 to 99.9), the “Evaluation index Velvet leaf” value (velvetleaf; 10 g/a) is reported as 5 (maximum *all dead) 100) and the “Evaluation index Corn (phytotoxicity)” value (corn; 1 g/a) is reported as 3 (big 25.1 to 50.0). The “Evaluation index Corn (phytotoxicity)” value (corn; 10 g/a) was 3 (big 25.1 to 50.0), the “Evaluation index Redroot pigweed” value (redroot pigweed; 1 g/a) was 5 (maximum *all dead) 100) and the “Evaluation index Redroot pigweed” value (redroot pigweed; 10 g/a) was 5 (maximum *all dead) 100). It also gave a melting point of 172 to 174 °C.
For CCS(=O)(=O)Nc1cc(-n2nc3ccc(Cl)cn3c2=O)c(F)cc1Cl [Compound No. A-35, 6-Chloro-2-(4-chloro-5-ethanesulfonylamino-2-fluorophenyl)-1,2,4-triazolo[4,3-a]pyridin-3(2H)-one], the “Evaluation index Velvet leaf” value (velvetleaf; 10 g/a) was 5 (maximum *all dead) 100), the “Evaluation index Corn (phytotoxicity)” value (corn; 10 g/a) was 1 (small 0.1 to 12.5) and the “Evaluation index Redroot pigweed” value (redroot pigweed; 10 g/a) was 5 (maximum *all dead) 100). For the same compound, the melting point was 121 to 123 °C and 120 to 122 °C.
With CCS(=O)(=O)Nc1cc(-n2nc3n(c2=O)CCCS3)c(F)cc1C#N [Compound No. E-1, 5,6-Dihydro-2-(4-cyano-5-ethylsulfonylamino-2-fluorophenyl)-7H-[1,2,4]triazolo[3,4-b][1,3]thiazin-3(2H)-one] the “Evaluation index Velvet leaf” value (velvetleaf; 1 g/a) was 5 (maximum *all dead) 100), the “Evaluation index Velvet leaf” value (velvetleaf; 10 g/a) was 5 (maximum *all dead) 100) and the “Evaluation index Corn (phytotoxicity)” value (corn; 1 g/a) was 1 (small 0.1 to 12.5). For the same compound, the “Evaluation index Corn (phytotoxicity)” value (corn; 10 g/a) was 1 (small 0.1 to 12.5), the “Evaluation index Redroot pigweed” value (redroot pigweed; 1 g/a) was 5 (maximum *all dead) 100) and the “Evaluation index Redroot pigweed” value (redroot pigweed; 10 g/a) was 5 (maximum *all dead) 100). It also gave a melting point of 193 to 195 °C.
With CCS(=O)(=O)N(C(C)=O)c1cc(-n2nc3ccc(Cl)cn3c2=O)c(F)cc1C#N [Compound No. A-6, 2-[5-(N-acetyl-N-ethanesulfonylamino)-4-cyano-2-fluorophenyl]-6-chloro-1,2,4-triazolo[4,3-a]pyridin-3(2H)-one] the “Evaluation index Velvet leaf” value (velvetleaf; 10 g/a) was 5 (maximum *all dead) 100), the “Evaluation index Corn (phytotoxicity)” value (corn; 10 g/a) was 1 (small 0.1 to 12.5) and the “Evaluation index Redroot pigweed” value (redroot pigweed; 10 g/a) was 5 (maximum *all dead) 100). The melting point was 220 to 222 °C.
In the case of Cc1cc2c(-n3nc4ccc(Cl)cn4c3=O)c(F)cc(Cl)c2o1 [A-62, 6-Chloro-2-(7-chloro-5-fluoro-2-methylbenzofuran-4-yl)-1,2,4-triazolo[4,3-a]pyridin-3(2H)-one], the “Evaluation index Velvet leaf” value (velvetleaf; 1 g/a) is reported as 5 (maximum *all dead) 100), the “Evaluation index Velvet leaf” value (velvetleaf; 10 g/a) is reported as 5 (maximum *all dead) 100) and the “Evaluation index Corn (phytotoxicity)” value (corn; 1 g/a) is reported as 1 (small 0.1 to 12.5). For the same compound, the “Evaluation index Corn (phytotoxicity)” value (corn; 10 g/a) was 1 (small 0.1 to 12.5), the “Evaluation index Redroot pigweed” value (redroot pigweed; 1 g/a) was 5 (maximum *all dead) 100) and the “Evaluation index Redroot pigweed” value (redroot pigweed; 10 g/a) was 5 (maximum *all dead) 100). It also gave a melting point of 205 to 207 °C.
With CCS(=O)(=O)Nc1cc(-n2nc3c(Cl)cccn3c2=O)c(F)cc1C#N [A-48] the “Evaluation index Velvet leaf” value (velvetleaf; 10 g/a) was 5 (maximum *all dead) 100) and the “Evaluation index Tall morning glory” value (tall morningglory; 10 g/a) was 5 (maximum *all dead) 100).
In the case of CCS(=O)(=O)Nc1cc(-n2nc3n(c2=O)CCS3)c(F)cc1C#N [Compound No. C-2, 5,6-Dihydro-2-(4-cyano-5-ethylsulfonylamino-2-fluorophenyl)thiazolo[2,3-c][1,2,4]triazol-3(2H)-one], the “Evaluation index Velvet leaf” value (velvetleaf; 1 g/a) is reported as 5 (maximum *all dead) 100), the “Evaluation index Velvet leaf” value (velvetleaf; 10 g/a) is reported as 5 (maximum *all dead) 100) and the “Evaluation index Corn (phytotoxicity)” value (corn; 1 g/a) is reported as 0 (no effect 0). The “Evaluation index Corn (phytotoxicity)” value (corn; 10 g/a) was 0 (no effect 0), the “Evaluation index Redroot pigweed” value (redroot pigweed; 1 g/a) was 5 (maximum *all dead) 100) and the “Evaluation index Redroot pigweed” value (redroot pigweed; 10 g/a) was 5 (maximum *all dead) 100).
In the case of CCOC(=O)CSc1cc(-n2nc3ccc(Cl)cn3c2=O)c(F)cc1C#N [A-19], the “Evaluation index Velvet leaf” value (velvetleaf; 10 g/a) is reported as 5 (maximum *all dead) 100) and the “Evaluation index Tall morning glory” value (tall morningglory; 10 g/a) is reported as 5 (maximum *all dead) 100).
With CCS(=O)(=O)Nc1cc(-n2nc3ccc(Cl)cn3c2=O)c(F)cc1C#N [Compound No. A-3, 6-Chloro-2-(4-cyano-5-ethanesulfonylamino-2-fluorophenyl)-1,2,4-triazolo[4,3-a]pyridin-3(2H)-one] the “Evaluation index Velvet leaf” value (velvetleaf; 1 g/a) was 5 (maximum *all dead) 100), the “Evaluation index Corn (phytotoxicity)” value (corn; 1 g/a) was 1 (small 0.1 to 12.5) and the “Evaluation index Tall morning glory” value (tall morningglory; 1 g/a) was 4 (maximum 87.6 to 99.9). It also gave a melting point of 220 to 222 °C.
For CCOC(=O)COC(=O)c1cc(-n2nc3ccc(Cl)cn3c2=O)c(F)cc1Cl [Compound No. A-34, Ethoxycarbonylmethyl 2-chloro-4-fluoro-5-(6-chloro-2,3-dihydro-3-oxo-1,2,4-triazolo[4,3-a]pyridin-2-yl)benzoate], the “Evaluation index Velvet leaf” value (velvetleaf; 1 g/a) was 4 (maximum 87.6 to 99.9), the “Evaluation index Corn (phytotoxicity)” value (corn; 1 g/a) was 1 (small 0.1 to 12.5) and the “Evaluation index Redroot pigweed” value (redroot pigweed; 1 g/a) was 5 (maximum *all dead) 100). The melting point was 62 to 65 °C.
